Reference: patent US20070128235A1, “Juvenile hormone transmethylase genes and method of using the same” (Inc. Admin Agency Natl Agr and Bio-oriented Research Org, priority 2003, published 2007)

Key:
[1] = target: T1, recombinant Drosophila melanogaster JHAMT (Drosophila melanogaster, UniProt Q9VJK8, F166Y/S182N); assay: Molecular activity of recombinant Drosophila melanogaster juvenile hormone acid methyltransferase; assay type: biochemical; settings: Tris-HCL 50 mM, pH 7.5; 25° C.; 1 mM S-adenosyl methionine and 100 μM of each JH acid; mean±standard deviation, n=3
T1 construct: to amplify the coding region of the juvenile hormone acid methyltransferase gene from Drosophila melanogaster; made in house
Protocol: (§1) A reverse phase column (CAPCELL PAK C18 UG80 S-5, 3×150 mm, Shiseido) was attached to an HPLC apparatus (JASCO), and juvenile hormones were detected by measuring absorbance at 217 nm using an ultraviolet detector. Samples were flowed at a rate of 0.5 ml/min, at a column retention temperature of 40° C., for 20 minutes, in 60% acetonitrile or 80% acetonitrile.
100 μg of a juvenile hormone acid (either JH I acid, JH II acid, JH III acid, or farnesoic acid) dissolved in toluene was transferred into a silicone-treated glass test tube (10×150 mm) using a glass capillary, and the solvent was removed under a nitrogen stream. 800 μl of buffer (50 mM Tris-Cl, pH 7.5) and 100 μl of 10 mM S-adenosyl methionine solution were added thereto and mixed sufficiently, then left to stand in a 25° C. thermostat water bath for five minutes. 100 μl of the recombinant protein solution obtained by the method of Example 3 was added thereto to initiate enzyme reaction. After ten minutes, 250 μl of reaction termination solution (methanol:water:concentrated aqueous ammonia=10:9:1) was added to terminate the enzyme reaction 1 ml of isooctane was added and mixed sufficiently, then the mixture was centrifuged (2,000 rpm, 15 minutes, room temperature) to separate the organic solvent layer and the aqueous layer. […] The molecular activities of the recombinant Bombyx mori JHAMT against JH I acid, JH II acid, JH III acid, and farnesoic acid were determined in conditions where the buffer was Tris-HCL (50 mM, pH 7.5), the reaction temperature was 25° C., and the substrates were 1 mM of S-adenosyl methionine and 100 μM of each JH acid. […]
cDNAs synthesized by reverse transcription of RNA extracted from a whole adult Drosophila melanogaster were used as a template for PCR using the DMJF primer (SEQ ID NO: 17) and DMJR primer (SEQ ID NO: 18) to amplify the coding region of the juvenile hormone acid methyltransferase gene from Drosophila melanogaster. […] The activity of the recombinant protein was determined by the same method as in Example 4, confirming that the protein encoded by the gene had juvenile hormone acid methyltransferase activity. The molecular activities of the recombinant Drosophila melanogaster JHAMT against JH I acid, JH II acid, JH III acid, and farnesoic acid were determined under conditions where the buffer was Tris-HCL (50 mM, pH 7.5), the reaction temperature was 25° C., and the substrates were 1 mM of S-adenosyl methionine and 100 μM of each JH acid. These activities were determined to be 2.67±0.44, 2.07±0.26, 1.76±0.13, and 2.3±0.51 (mean±standard deviation, n=3), respectively.

[2] = system: recombinant Bombyx mori JHAMT; assay: Juvenile hormone synthesis by recombinant juvenile hormone acid methyltransferase (enzyme reaction, reverse phase HPLC); assay type: biochemical; settings: 25° C.; for production of the corresponding active juvenile hormone in the reaction solution: 100 μg substrate, S-adenosyl methionine, ten minutes, reverse phase HPLC (FIG. 4); for molecular activity (number of substrate molecules changed to reaction product by one molecule of the enzyme in one minute): Tris-HCL 50 mM, pH 7.5, 1 mM S-adenosyl methionine and 100 μM of each JH acid, mean±standard deviation, n=3
Protocol: as §1
100 μg of a juvenile hormone acid (either JH I acid, JH II acid, JH III acid, or farnesoic acid) dissolved in toluene was transferred into a silicone-treated glass test tube (10×150 mm) using a glass capillary, and the solvent was removed under a nitrogen stream. 800 μl of buffer (50 mM Tris-Cl, pH 7.5) and 100 μl of 10 mM S-adenosyl methionine solution were added thereto and mixed sufficiently, then left to stand in a 25° C. thermostat water bath for five minutes. 100 μl of the recombinant protein solution obtained by the method of Example 3 was added thereto to initiate enzyme reaction. After ten minutes, 250 μl of reaction termination solution (methanol:water:concentrated aqueous ammonia=10:9:1) was added to terminate the enzyme reaction 1 ml of isooctane was added and mixed sufficiently, then the mixture was centrifuged (2,000 rpm, 15 minutes, room temperature) to separate the organic solvent layer and the aqueous layer. 100 μl of the organic solvent layer was transferred into a small vial using a glass capillary, and then the solvent was removed under a nitrogen stream to obtain a residue, which was dissolved in 100 μl of acetonitrile to analyze the synthesized juvenile hormone by a method using reverse phase HPLC. […] The molecular activities of the recombinant Bombyx mori JHAMT against JH I acid, JH II acid, JH III acid, and farnesoic acid were determined in conditions where the buffer was Tris-HCL (50 mM, pH 7.5), the reaction temperature was 25° C., and the substrates were 1 mM of S-adenosyl methionine and 100 μM of each JH acid. These activities (the number of substrate molecules changed to reaction product by one molecule of the enzyme in one minute) were 1.80±0.32, 1.65±0.23, 0.79 ±0.06, and 0.48±0.07 (mean±standard deviation n=3), respectively. When a saturated straight chain fatty acid or an unsaturated straight chain fatty acid was used as a substrate, methyl esterification by the enzyme was not observed. Therefore, the enzyme reaction was substrate-specific to juvenile hormone acid.

T1 sequence (Q9VJK8 whole entry F166Y/S182N): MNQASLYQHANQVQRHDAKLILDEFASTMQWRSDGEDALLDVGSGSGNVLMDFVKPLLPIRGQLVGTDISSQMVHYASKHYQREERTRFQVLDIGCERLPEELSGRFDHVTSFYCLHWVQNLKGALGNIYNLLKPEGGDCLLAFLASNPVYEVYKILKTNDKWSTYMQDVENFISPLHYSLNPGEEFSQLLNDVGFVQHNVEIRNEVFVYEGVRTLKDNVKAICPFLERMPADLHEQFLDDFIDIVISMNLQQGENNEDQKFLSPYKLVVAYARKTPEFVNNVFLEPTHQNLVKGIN

CC/C(=C\CC/C(C)=C/C(=O)O)CCC1OC1(C)CC (stereo not drawn) [JH I acid]
molecular activity [1]: 2.67±0.44 | production of the corresponding active juvenile hormone in the reaction solution [2]: confirmed to be produced | molecular activity (number of substrate molecules changed to reaction product by one molecule of the enzyme in one minute) [2]: 1.80±0.32

CC[C@]1(C)O[C@@H]1CC/C(C)=C/CC/C(C)=C/C(=O)O [JH II acid]
molecular activity [1]: 2.07±0.26 | production of the corresponding active juvenile hormone in the reaction solution [2]: confirmed to be produced | molecular activity (number of substrate molecules changed to reaction product by one molecule of the enzyme in one minute) [2]: 1.65±0.23

C/C(=C\C(=O)O)CC/C=C(\C)CCC1OC1(C)C (stereo not drawn) [JH III acid]
molecular activity [1]: 1.76±0.13 | production of the corresponding active juvenile hormone in the reaction solution [2]: confirmed to be produced | molecular activity (number of substrate molecules changed to reaction product by one molecule of the enzyme in one minute) [2]: 0.79 ±0.06

CC(C)=CCCC(C)=CCCC(C)=CC(=O)O [farnesoic acid]
molecular activity [1]: 2.3±0.51 | production of the corresponding active juvenile hormone in the reaction solution [2]: confirmed to be produced | molecular activity (number of substrate molecules changed to reaction product by one molecule of the enzyme in one minute) [2]: 0.48±0.07
